According to patent US10757941B2, “Microbiocidal oxadiazole derivatives” (SYNGENTA PARTICIPATIONS AG, priority 2016, dated 2020):

What was measured:
[1] = system: Glomerella lagenarium (Colletotrichum lagenarium); assay: Fungicidal activity against Glomerella lagenarium (Colletotrichum lagenarium) liquid culture / cucumber / preventative (anthracnose); type: cell-based; details: Colletotrichum orbiculare; 20 ppm in the applied formulation; liquid culture in PDB, 24° C.; inhibition of growth measured photometrically 3 to 4 days after application; compared to untreated; read-out: disease control
Summary of the method: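 Conidia of C. lagenarium from cryogenic storage mixed into potato dextrose broth and added to test compound (DMSO solution) in microtiter plates; incubated at 24° C. Growth inhibition read photometrically 3 to 4 days after application, as percent activity versus untreated check.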

Phakopsora pachyrhizi = assay: Fungicidal activity against Phakopsora pachyrhizi / soybean / leaf disc preventative (Asian soybean rust); type: in vivo; details: foliar, 200 ppm in the applied formulation, soybean leaf disks, preventative (inoculated one day after application), assessed 12 to 14 days after application, compared to untreated, read-out: disease control
Summary of the method: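 Preventative test: soybean leaf discs on water agar sprayed with compound diluted in water, inoculated with spore suspension on lower surface one day later. Incubated 24-36 h dark at 20° C., 75% rh, then 12 h light/day; percent disease control versus untreated assessed 12 to 14 days after application.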

Uromyces viciae-fabael = assay: Fungicidal activity against Uromyces viciae-fabae / field bean / leaf disc preventative (faba-bean rust); type: in vivo; details: foliar, 288 h, 100 ppm in the applied formulation, field bean leaf discs, preventative (inoculated two hours after application), assessed 12 days after application, compared to untreated, read-out: disease control
Summary of the method: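 Field bean leaf discs on water agar treated with compound in acetone plus spreader, then inoculated 2 h later by spraying U. viciae-fabae spores on the lower surface. Incubation at 22° C, 18 h day, 70% RH; percent disease control versus untreated scored 12 days after application.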

[2] = system: Puccinia recondita f. Sp. Tritici; assay: Fungicidal activity against Puccinia recondita f. sp. tritici / wheat / leaf disc preventative (brown rust); type: in vivo; details: foliar, 200 ppm in the applied formulation, wheat leaf segments cv. Kanzler, preventative (inoculated 1 day after application), assessed 7 to 9 days after application, compared to untreated, read-out: disease control
Summary of the method: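 Wheat cv. Kanzler leaf segments on agar sprayed with formulated compound diluted in water; spore inoculation 1 day after application. Incubated at 19° C., 75% rh, 12 h light/12 h dark; percent disease control versus untreated scored 7 to 9 days after application.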

[3] = system: Puccinia recondita f. Sp. Tritici; assay: Fungicidal activity against Puccinia recondita f. sp. tritici / wheat / leaf disc curative (brown rust); type: in vivo; details: foliar, 200 ppm in the applied formulation, wheat leaf segments cv. Kanzler, curative (applied 1 day after inoculation), assessed 6 to 8 days after application, compared to untreated, read-out: disease control
Procedure: Leaf disks or leaf segments of various plant species are cut from plants grown in a greenhouse. The cut leaf disks or segments are placed in multiwell plates (24-well format) onto water agar. The leaf disks are sprayed with a test solution before (preventative) or after (curative) inoculation. Compounds to be tested are prepared as DMSO solutions (max. 10 mg/ml) which are diluted to the appropriate concentration with 0.025% Tween20 just before spraying. The inoculated leaf disks or segments are incubated under defined conditions (temperature, relative humidity, light, etc.) according to the respective test system. A single evaluation of disease level is carried out 3 to 14 days after inoculation, depending on the pathosystem. Percent disease control relative to the untreated check leaf disks or segments is then calculated. Example 2: Fungicidal Activity Against Puccinia recondita f. Sp. Tritici/Wheat/Leaf Disc Curative (Brown Rust) Wheat leaf segments cv. Kanzler are placed on agar in multiwell plates (24-well format). The leaf segments are then inoculated with a spore suspension of the fungus. Plates were stored in darkness at 19° C. and 75% relative humidity. The formulated test compound diluted in water was applied 1 day after inoculation. The leaf segments were incubated at 19° C. and 75% relative humidity under a light regime of 12 hours light/12 hours darkness in a climate cabinet and the activity of a compound was assessed as percent disease control compared to untreated when an appropriate level of disease damage appears in untreated check leaf segments (6 to 8 days after application). The following compounds at 200 ppm in the applied formulation give at least 80% disease control in this test when compared to untreated control leaf disks under the same conditions, which show extensive disease development.

CC(NC(=O)c1ccc(-c2noc(C(F)(F)F)n2)c(F)c1)C1CC1 (stereo not drawn) [Compound 1.25, N-(1-cyclopropylethyl)-3-fluoro-4-[5-(trifluoromethyl)-1,2,4-oxadiazol-3-yl]benzamide]
≥ 80%: inhibition of growth at 20 ppm [1] | pest or weed control at 200 ppm (Phakopsora pachyrhizi) | pest or weed control at 100 ppm (Uromyces viciae-fabael) | pest or weed control at 200 ppm [2] | pest or weed control at 200 ppm [3]

O=C(NCc1ccco1)c1ccc(-c2noc(C(F)(F)F)n2)c(F)c1 [Compound 1.31, 3-fluoro-N-(2-furylmethyl)-4-[5-(trifluoromethyl)-1,2,4-oxadiazol-3-yl]benzamide]
≥ 80%: inhibition of growth at 20 ppm [1] | pest or weed control at 200 ppm (Phakopsora pachyrhizi) | pest or weed control at 100 ppm (Uromyces viciae-fabael) | pest or weed control at 200 ppm [2] | pest or weed control at 200 ppm [3]

Cc1ccc(CNC(=O)c2ccc(-c3noc(C(F)(F)F)n3)c(F)c2)o1 [Compound 1.28, 3-fluoro-N-[(5-methyl-2-furyl)methyl]-4-[5-(trifluoromethyl)-1,2,4-oxadiazol-3-yl]benzamide]
≥ 80%: inhibition of growth at 20 ppm [1] | pest or weed control at 200 ppm (Phakopsora pachyrhizi) | pest or weed control at 100 ppm (Uromyces viciae-fabael) | pest or weed control at 200 ppm [2] | pest or weed control at 200 ppm [3]

CCOCC1(NC(=O)c2ccc(-c3noc(C(F)(F)F)n3)c(F)c2)CC1 [Compound 1.40, N-[1-(ethoxy-methyl)cyclopropyl]-3-fluoro-4-[5-(trifluoromethyl)-1,2,4-oxadiazol-3-yl]benzamide]
≥ 80%: inhibition of growth at 20 ppm [1] | pest or weed control at 200 ppm (Phakopsora pachyrhizi) | pest or weed control at 100 ppm (Uromyces viciae-fabael) | pest or weed control at 200 ppm [2] | pest or weed control at 200 ppm [3]

COCCN(Cc1ccccc1)C(=O)c1ccc(-c2noc(C(F)(F)F)n2)c(F)c1 [Compound 1.16, N-benzyl-3-fluoro-N-(2-methoxyethyl)-4-[5-(trifluoromethyl)-1,2,4-oxadiazol-3-yl]benzamide]
≥ 80%: inhibition of growth at 20 ppm [1] | pest or weed control at 200 ppm (Phakopsora pachyrhizi) | pest or weed control at 100 ppm (Uromyces viciae-fabael) | pest or weed control at 200 ppm [2] | pest or weed control at 200 ppm [3]

O=C(NCCc1cccs1)c1ccc(-c2noc(C(F)(F)F)n2)c(F)c1 [Compound 1.35, 3-fluoro-N-[2-(2-thienyl)ethyl]-4-[5-(trifluoromethyl)-1,2,4-oxadiazol-3-yl]benzamide]
≥ 80%: inhibition of growth at 20 ppm [1] | pest or weed control at 200 ppm (Phakopsora pachyrhizi) | pest or weed control at 100 ppm (Uromyces viciae-fabael) | pest or weed control at 200 ppm [2] | pest or weed control at 200 ppm [3]

O=C(NCC1COCCO1)c1ccc(-c2noc(C(F)(F)F)n2)c(F)c1 (stereo not drawn) [Compound 1.12, N-(1,4-dioxan-2-ylmethyl)-3-fluoro-4-[5-(trifluoromethyl)-1,2,4-oxadiazol-3-yl]benzamide]
≥ 80%: inhibition of growth at 20 ppm [1] | pest or weed control at 200 ppm (Phakopsora pachyrhizi) | pest or weed control at 100 ppm (Uromyces viciae-fabael) | pest or weed control at 200 ppm [2] | pest or weed control at 200 ppm [3]

O=C(NCC1CCOC1)c1ccc(-c2noc(C(F)(F)F)n2)c(F)c1 (stereo not drawn) [Compound 1.14, 3-fluoro-N-(tetrahydrofuran-3-ylmethyl)-4-[5-(trifluoromethyl)-1,2,4-oxadiazol-3-yl]benzamide]
≥ 80%: inhibition of growth at 20 ppm [1] | pest or weed control at 200 ppm (Phakopsora pachyrhizi) | pest or weed control at 100 ppm (Uromyces viciae-fabael) | pest or weed control at 200 ppm [2] | pest or weed control at 200 ppm [3]

O=C(NC1CCC1)c1ccc(-c2noc(C(F)(F)F)n2)c(F)c1 [Compound 1.39, N-cyclobutyl-3-fluoro-4-[5-(trifluoromethyl)-1,2,4-oxadiazol-3-yl]benzamide]
≥ 80%: inhibition of growth at 20 ppm [1] | pest or weed control at 200 ppm (Phakopsora pachyrhizi) | pest or weed control at 100 ppm (Uromyces viciae-fabael) | pest or weed control at 200 ppm [2] | pest or weed control at 200 ppm [3]
